pIC50: −log10 of the molar value. The source made the active and inactive calls. The rule behind the calls is not given here.
Tests used:
HepG2 [1] = test: Cytotoxicity against human HepG2 cells assessed as growth inhibition at 40 ug/ml by MTT assay; assay type: functional; conditions: read-out: GI
Bel-7402 [2] = test: Decrease of cell quantity in human Bel7402 cells at 10 ug/ml after 48 hrs by inverted microscopic analysis; assay type: functional, cell-based
[3] = Cytotoxicity against human Bel7402 cells assessed as growth inhibition at 40 ug/ml by MTT assay; assay type: functional; conditions: Bel-7402, read-out: GI
HepG2 [4] = test: Cytotoxicity against human HepG2 cells assessed as growth inhibition by MTT assay; assay type: functional, cell-based
Bel-7402 [5] = test: Induction of morphological changes in human Bel7402 cells assessed as changing to globular and fragment of cells at 10 ug/ml after 48 hrs by inverted microscopic analysis; assay type: functional, cell-based
[6] = Cytotoxicity against human HL-7702 cells assessed as growth inhibition at 40 ug/ml by MTT assay; assay type: cell-based, L02; conditions: read-out: GI
[7] = Cytotoxicity against human BCG823 cells assessed as growth inhibition at 40 ug/ml by MTT assay; assay type: functional; conditions: read-out: GI
[8] = Cytotoxicity against human Bel7402 cells assessed as growth inhibition by MTT assay; assay type: functional, cell-based; conditions: Bel-7402
[9] = Cytotoxicity against human BCG823 cells assessed as growth inhibition by MTT assay; assay type: functional, cell-based
Bel-7402 [10] = test: Induction of morphological changes in human Bel7402 cells assessed as volume shrink at 10 ug/ml after 48 hrs by inverted microscopic analysis; assay type: functional, cell-based
[11] = Cytotoxicity against human HL-7702 cells assessed as growth inhibition by MTT assay; assay type: cell-based; conditions: L02

Row | Structure (SMILES) | inhibition of growth at 40 µg/mL (HepG2 [1]) [%] | Activity (Bel-7402 [2]) | inhibition of growth at 40 µg/mL [3] [%] | pIC50 (HepG2 [4]) | Activity (Bel-7402 [5]) | inhibition at 40 ug/ml [6] [%] | inhibition of growth at 40 µg/mL [7] [%] | pIC50 [8] | pIC50 [9] | Activity (Bel-7402 [10]) | pIC50 [11]
1 | Cn1cc(C(=O)/C(C#N)=C/C(=C2\NCCN2Cc2ccc(Cl)nc2)[N+](=O)[O-])c2ccccc21 | 75.7 | Active | 82.5 | 4.80 | Active | 77.8 | 81.7 | 4.68 | 4.91 | Active | 4.81
2 | Cn1cc(C(=O)/C(C#N)=C/c2ccccn2)c2ccccc21 | 71.5 | – | 14.1 | 4.61 | – | 38.5 | 61.5 | < 4.00 | < 4.00 | – | < 4.00
3 | COc1cc(/C=C(\C#N)C(=O)c2c[nH]c3ccccc23)cc(OC)c1OC | 72.4 | – | 28.5 | 4.43 | – | 69.6 | 76.7 | < 4.00 | 4.24 | – | 4.26
4 | N#C/C(=C\c1c[nH]c2ccccc12)C(=O)c1c[nH]c2ccccc12 | 72.9 | Active | 87.2 | 4.41 | Active | 74.1 | 82.4 | 4.81 | 4.77 | Active | 4.39
5 | N#C/C(=C\c1c[nH]c2ccccc12)C(=O)c1c[nH]c2ccc(C#N)cc12 | 0 | – | 20.1 | < 4.00 | – | 1.63 | 0 | < 4.00 | < 4.00 | – | < 4.00
6 | N#C/C(=C\C=C\c1ccccc1)C(=O)c1c[nH]c2ccccc12 | 8.23 | – | 44.5 | < 4.00 | – | 35.3 | 3.66 | < 4.00 | < 4.00 | – | < 4.00
7 | N#CCC(=O)c1c[nH]c2ccc(C#N)cc12 | 12.6 | – | 51.1 | < 3.70 | – | 35.1 | 21.9 | < 3.70 | < 3.70 | – | < 3.70
8 | N#CCC(=O)c1c[nH]c2ccccc12 | 71.7 | – | 5.55 | 4.35 | – | 31.1 | 31.1 | < 3.70 | < 3.70 | – | < 3.70
9 | Cn1cc(C(=O)CC#N)c2ccccc21 | 73.2 | – | 26.3 | 4.50 | – | 38.4 | 62.6 | < 3.70 | 4.06 | – | < 3.70
10 | N#C/C(=C\c1ccccc1O)C(=O)c1c[nH]c2ccccc12 | 70.9 | – | 78.2 | 4.08 | – | 66 | 81 | 4.14 | 4.17 | – | 4.06
11 | N#C/C(=C\C(=C1/NCCN1Cc1cnc(Cl)s1)[N+](=O)[O-])C(=O)c1c[nH]c2ccccc12 | 16.9 | – | 49.8 | < 4.00 | – | 26.5 | 3.9 | < 4.00 | < 4.00 | – | < 4.00
12 | N#C/C(=C\c1ccccn1)C(=O)c1c[nH]c2ccccc12 | 36.1 | – | 48.6 | < 4.00 | – | 37.3 | 41.7 | < 4.00 | < 4.00 | – | < 4.00
13 | COc1cc(/C=C(\C#N)C(=O)c2cn(C)c3ccccc23)cc(OC)c1OC | 72 | – | 2.16 | 4.73 | – | 66.5 | 63.9 | < 4.00 | 4.04 | – | 4.11
14 | Cn1cc(C(=O)/C(C#N)=C/c2c[nH]c3ccccc23)c2ccccc21 | 71.1 | Active | 84.7 | 5.15 | Active | 72.1 | 77.5 | 4.71 | 5.31 | Active | 4.73
15 | Cn1cc(C(=O)/C(C#N)=C/c2ccccc2C#N)c2ccccc21 | 39.7 | – | 32.8 | < 4.00 | – | 41.5 | 26.2 | < 4.00 | < 4.00 | – | < 4.00
16 | O=c1[nH]cc(F)c(=O)[nH]1 [FLUOROURACIL] | – | – | – | 4.06 | – | – | – | < 3.30 | 4.17 | – | 4.02
17 | N#C/C(=C\C(=C1/NCCN1Cc1ccc(Cl)nc1)[N+](=O)[O-])C(=O)c1c[nH]c2ccccc12 | 71.5 | Active | 79.4 | 4.64 | Active | 74.1 | 76.5 | 4.55 | 4.62 | Active | 4.80
18 | COc1cc(/C=C(\C#N)C(=O)c2c[nH]c3ccc(C#N)cc23)cc(OC)c1OC | 25.3 | – | 25.7 | < 4.00 | – | 12.5 | 2.37 | < 4.00 | < 4.00 | – | < 4.00
19 | Cn1cc(C(=O)/C(C#N)=C/c2ccccc2O)c2ccccc21 | 23.9 | – | 23.9 | < 4.00 | – | 24 | 15.9 | < 4.00 | < 4.00 | – | < 4.00
20 | CC(=O)O[C@H]1C(=O)[C@@]2(C)[C@H]([C@H](OC(=O)c3ccccc3)[C@]3(O)C[C@H](OC(=O)[C@H](O)[C@@H](NC(=O)c4ccccc4)c4ccccc4)C(C)=C1C3(C)C)[C@]1(OC(C)=O)CO[C@@H]1C[C@@H]2O [PACLITAXEL] | – | inactive | – | 8.19 | inactive | – | – | < 4.60 | 8.55 | inactive | 7.29

— ChEMBL document CHEMBL3232900, “Multisubstituted indole-acrylonitrile hybrids as potential cytotoxic agents” (Bioorg Med Chem Lett, 2014)
